The values that follow come from patent US10913727B2, “Modulators of the integrated stress pathway” (Calico Life Sciences LLC, priority 2016, dated 2021).

Where only a bound is given, the exact number is not on record here.

The assay has as its system HEK293T cells carrying the ATF4 luciferase reporter. Nature of the assay: ATF4-Luc assay, in vitro model of Vanishing Cell White Matter Disease (VWMD). Particulars: Homo sapiens, HEK-293T, 1 μg/mL tunicamycin, 7 hours, One Glo luminescence. It is filed as cell-based. In a few lines: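 Stable HEK293T line with human ATF4 5′-UTR–firefly luciferase reporter treated with 1 μg/mL tunicamycin plus 200 nM compound for 7 h. Luminescence read; EC50 derived.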
In general, EC50 refers to the concentration giving half of the maximal effect. On to `N#CCc1ccccc1C(=O)NC12CC(NC(=O)COc3ccc(Cl)c(F)c3)(C1)C2` [Compound 206, N-{3-[2-(4-chloro-3-fluorophenoxy)acetamido]bicyclo[1.1.1]pentan-1-yl}-2-(cyanomethyl)benzamide], for which the EC50 is 0.25 to 1 µM.

Take `O=C(COc1ccc(Cl)c(F)c1)NC12CC(NC(=O)c3cnc(C4CC4)o3)(C1)C2` [Compound 583, N-{3-[2-(4-chloro-3-fluorophenoxy)acetamido]bicyclo[1.1.1]pentan-1-yl}-2-cyclopropyl-1,3-oxazole-5-carboxamide]: the EC50 is 0.05 to 0.25 µM.

Consider `CCc1nc(C)c(C(=O)NC23CC(NC(=O)COc4ccc(Cl)c(F)c4)(C2)C3)s1` [Compound 294, N-{3-[2-(4-chloro-3-fluorophenoxy)acetamido]bicyclo[1.1.1]pentan-1-yl}-2-ethyl-4-methyl-1,3-thiazole-5-carboxamide], for which the EC50 was in the range of 0.05 to 0.25 µM.

`O=C(COc1ccc(Cl)c(F)c1)NC12CC(NC(=O)c3cc4n(n3)CCCN4)(C1)C2` [Compound 125, N-{3-[2-(4-chloro-3-fluorophenoxy)acetamido]bicyclo[1.1.1]pentan-1-yl}-4,5,6,7-tetrahydropyrazolo[1,5-a]pyrimidine-2-carboxamide]: the EC50 was above 2 µM.

In the case of `O=C(COc1ccc2c(c1)OC(F)(F)O2)NC12CC(NC(=O)c3cc(CO)ccn3)(C1)C2` [Compound 401, N-(3-{2-[(2,2-difluoro-2H-1,3-benzodioxol-5-yl)oxy]acetamido}bicyclo[1.1.1]pentan-1-yl)-4-(hydroxymethyl)pyridine-2-carboxamide], the EC50 is 0.25 to 1 µM.

Consider `Cc1nn(C)c(C(=O)NC23CC(NC(=O)COc4ccc(Cl)c(F)c4)(C2)C3)c1F` [Compound 499, N-{3-[2-(4-chloro-3-fluorophenoxy)acetamido]bicyclo[1.1.1]pentan-1-yl}-4-fluoro-1,3-dimethyl-1H-pyrazole-5-carboxamide], for which the EC50 was below 0.05 µM.

With `Cc1cc(C(=O)NC23CCC(NC(=O)COc4ccc(Cl)c(F)c4)(CC2)C(O)C3)sn1` (stereo not shown) [Compound 578, N-{4-[2-(4-chloro-3-fluorophenoxy)acetamido]-3-hydroxybicyclo[2.2.2]octan-1-yl}-3-methyl-1,2-thiazole-5-carboxamide], the EC50 was below 0.05 µM.

Take `O=C(COc1ccc(Cl)c(F)c1)NC12CC(NC(=O)c3cc(CO)ccn3)(C1)C2` [Compound 178, N-{3-[2-(4-chloro-3-fluorophenoxy)acetamido]bicyclo[1.1.1]pentan-1-yl}-4-(hydroxymethyl)pyridine-2-carboxamide]: the EC50 lay within 0.05 to 0.25 µM.

For `COc1ccc(C(=O)NC23CC(NC(=O)COc4ccc(Cl)c(F)c4)(C2)C3)cc1OC` [Compound 302, N-{3-[2-(4-chloro-3-fluorophenoxy)acetamido]bicyclo[1.1.1]pentan-1-yl}-3,4-dimethoxybenzamide], the EC50 was above 2 µM.

For `O=C(COc1ccc(Cl)c(F)c1)NC12CC(NC(=O)c3cc(C(F)F)no3)(C1)C2` [Compound 654, N-{3-[2-(4-chloro-3-fluorophenoxy)acetamido]bicyclo[1.1.1]pentan-1-yl}-3-(difluoromethyl)-1,2-oxazole-5-carboxamide], the EC50 lay within 0.05 to 0.25 µM.

Take `O=C(COc1ccc(Cl)c(F)c1)NC12CCC(NC(=O)c3cc(C(F)F)cs3)(CC1)C[C@@H]2O` [Compound 665, N-{(3S)-4-[2-(4-chloro-3-fluorophenoxy)acetamido]-3-hydroxybicyclo[2.2.2]octan-1-yl}-4-(difluoromethyl)thiophene-2-carboxamide]: the EC50 is below 0.05 µM.

Consider `O=C(COc1ccc(Cl)cc1)NC12CC(NC(=O)c3ccc(OC(F)(F)F)nc3)(C1)C2` [Compound 570, N-{3-[2-(4-chlorophenoxy)acetamido]bicyclo[1.1.1]pentan-1-yl}-6-(trifluoromethoxy)pyridine-3-carboxamide], for which the EC50 fell in the range of 0.05 to 0.25 µM.

For the compound `Cc1nn(C)cc1-c1cc(C(=O)NC23CC(NC(=O)COc4ccc(Cl)c(F)c4)(C2)C3)no1` [Compound 865, N-{3-[2-(4-chloro-3-fluorophenoxy)acetamido]bicyclo[1.1.1]pentan-1-yl}-5-(1,3-dimethyl-1H-pyrazol-4-yl)-1,2-oxazole-3-carboxamide], the EC50 lay in the range of 1 to 2 µM.

As to `O=C(COc1ccc(Cl)c(F)c1)NC12CC(NC(=O)c3cnc(-c4ccc(Cl)c(F)c4)o3)(C1)C2` [Compound 105, N-{3-[2-(4-chloro-3-fluorophenoxy)acetamido]bicyclo[1.1.1]pentan-1-yl}-2-(4-chloro-3-fluorophenyl)-1,3-oxazole-5-carboxamide], the EC50 is below 0.05 µM.

Take `O=C(COc1ccc(Cl)c(F)c1)NC12CCC(Nc3nccn4cnnc34)(CC1)[C@H](O)C2` [Compound 464, 2-(4-chloro-3-fluorophenoxy)-N-{(3R)-3-hydroxy-4-[([1,2,4]triazolo[4,3-a]pyrazin-8-yl)amino]bicyclo[2.2.2]octan-1-yl}acetamide]: the EC50 was above 2 µM.

Turning to `CC(C)(O)c1ccc(C(=O)NC23CC(NC(=O)COc4ccc(Cl)c(F)c4)(C2)C3)cc1` [Compound 208, N-{3-[2-(4-chloro-3-fluorophenoxy)acetamido]bicyclo[1.1.1]pentan-1-yl}-4-(2-hydroxypropan-2-yl)benzamide], the EC50 is 1 to 2 µM.

For the compound `Cc1c(-c2cc(C(=O)NC34CC(NC(=O)COc5ccc(Cl)c(F)c5)(C3)C4)no2)cnn1C` [Compound 840, N-{3-[2-(4-chloro-3-fluorophenoxy)acetamido]bicyclo[1.1.1]pentan-1-yl}-5-(1,5-dimethyl-1H-pyrazol-4-yl)-1,2-oxazole-3-carboxamide], the EC50 was in the range of 1 to 2 µM.

Regarding `Cc1cc(Cl)cnc1C(=O)NC12CC(NC(=O)COc3ccc(Cl)c(F)c3)(C1)C2` [Compound 777, 5-chloro-N-{3-[2-(4-chloro-3-fluorophenoxy)acetamido]bicyclo[1.1.1]pentan-1-yl}-3-methylpyridine-2-carboxamide], the EC50 is above 2 µM.

Consider `O=C(COc1ccc(Cl)c(F)c1)NC12CCC(NC(=O)c3csc(C4CC4)n3)(CC1)CC2O` (stereo not shown) [Compound 522, N-{4-[2-(4-chloro-3-fluorophenoxy)acetamido]-3-hydroxybicyclo[2.2.2]octan-1-yl}-2-cyclopropyl-1,3-thiazole-4-carboxamide], for which the EC50 is 0.05 to 0.25 µM.

For `Cc1ccc(C(=O)NC23CCC(NC(=O)COc4ccc(Cl)c(F)c4)(CC2)C(O)C3)o1` (stereo not shown) [Compound 624, N-{4-[2-(4-chloro-3-fluorophenoxy)acetamido]-3-hydroxybicyclo[2.2.2]octan-1-yl}-5-methylfuran-2-carboxamide], the EC50 lay within 0.05 to 0.25 µM.

As to `O=C(COc1ccc(Cl)c(F)c1)NC12CC(NC(=O)c3cnc(C4CCOCC4)o3)(C1)C2` [Compound 139, N-{3-[2-(4-chloro-3-fluorophenoxy)acetamido]bicyclo[1.1.1]pentan-1-yl}-2-(oxan-4-yl)-1,3-oxazole-5-carboxamide], the EC50 lay in the range of 0.25 to 1 µM.

In the case of `O=C(COc1ccc(Cl)c(F)c1)NC12CCC(NC(=O)c3cnc4ccccc4n3)(CC1)C[C@@H]2O` [Compound 667, N-{(3S)-4-[2-(4-chloro-3-fluorophenoxy)acetamido]-3-hydroxybicyclo[2.2.2]octan-1-yl}quinoxaline-2-carboxamide], the EC50 is below 0.05 µM.

For the compound `Cc1cnc2cc(C(=O)NC34CC(NC(=O)COc5ccc(Cl)c(F)c5)(C3)C4)nn2c1` [Compound 833, N-{3-[2-(4-chloro-3-fluorophenoxy)acetamido]bicyclo[1.1.1]pentan-1-yl}-6-methylpyrazolo[1,5-a]pyrimidine-2-carboxamide], the concentration giving a half-maximal response (EC50) lay within 1 to 2 µM.

As to `Cc1nocc1C(=O)NC12CC(NC(=O)COc3ccc(Cl)c(F)c3)(C1)C2` [Compound 879, N-{3-[2-(4-chloro-3-fluorophenoxy)acetamido]bicyclo[1.1.1]pentan-1-yl}-3-methyl-1,2-oxazole-4-carboxamide], the EC50 is above 2 µM.

Regarding `CC(=O)Nc1sccc1C(=O)NC12CC(NC(=O)COc3ccc(Cl)c(F)c3)(C1)C2` [Compound 876, 2-acetamido-N-{3-[2-(4-chloro-3-fluorophenoxy)acetamido]bicyclo[1.1.1]pentan-1-yl}thiophene-3-carboxamide], the EC50 was in the range of 0.25 to 1 µM.

Consider `N#Cc1ccnc(C(=O)NC23CCC(NC(=O)COc4ccc(Cl)c(F)c4)(CC2)C(O)C3)c1` (stereo not shown) [Compound 932, N-{4-[2-(4-chloro-3-fluorophenoxy)acetamido]-3-hydroxybicyclo[2.2.2]octan-1-yl}-4-cyanopyridine-2-carboxamide], for which the EC50 lay within 0.05 to 0.25 µM.

Turning to `O=C(COc1ccc(Cl)c(F)c1)NC12CC(Nc3nnc(-c4ccccc4)o3)(C1)C2` [Compound 404, 2-(4-chloro-3-fluorophenoxy)-N-{3-[(5-phenyl-1,3,4-oxadiazol-2-yl)amino]bicyclo[1.1.1]pentan-1-yl}acetamide], the EC50 was above 2 µM.

`O=C(COc1ccc(Cl)c(F)c1)NC12CC(NC(=O)c3ccon3)(C1)C2` [Compound 820, N-{3-[2-(4-chloro-3-fluorophenoxy)acetamido]bicyclo[1.1.1]pentan-1-yl}-1,2-oxazole-3-carboxamide]: the EC50 is above 2 µM.

Take `CSc1ccccc1C(=O)NC12CC(NC(=O)COc3ccc(Cl)c(F)c3)(C1)C2` [Compound 866, N-{3-[2-(4-chloro-3-fluorophenoxy)acetamido]bicyclo[1.1.1]pentan-1-yl}-2-(methylsulfanyl)benzamide]: the EC50 is above 2 µM.

For `O=C(COc1ccc(Cl)c(F)c1)NC12CCC(NC(=O)c3cc(C4CC4)no3)(CC1)CC2O` (stereo not shown) [Compound 327, N-{4-[2-(4-chloro-3-fluorophenoxy)acetamido]-3-hydroxybicyclo[2.2.2]octan-1-yl}-3-cyclopropyl-1,2-oxazole-5-carboxamide], the EC50 was in the range of 0.05 to 0.25 µM.

Consider `O=C(COc1ccc(Cl)c(F)c1)NC12CC(NC(=O)c3ccc4nccnc4c3)(C1)C2` [Compound 766, N-{3-[2-(4-chloro-3-fluorophenoxy)acetamido]bicyclo[1.1.1]pentan-1-yl}quinoxaline-6-carboxamide], for which the EC50 was above 2 µM.
